# Measurements as given in patent US10899709B2, “Novel-alkynyl-substituted 3-phenylpyrrolidine-2,4-diones and use thereof as herbicides” (BAYER CROPSCIENCE AKTIENGESELLSCHAFT, priority 2015, dated 2021).
# Experiments:
# Type in all cases: in vivo
# Setaria viridis [1] = assay: Pre-emergence herbicidal effect; conditions: visual score after 3 weeks
# Description: (§1) Seeds of monocotyledonous and dicotyledonous weed plants and crop plants are laid out in wood-fibre pots in sandy loam and covered with soil. The compounds according to the invention formulated in the form of wettable powders (WP) or as emulsion concentrates (EC) are then applied as aqueous suspension or emulsion at a water application rate of 600 to 800 l/ha (converted) with the addition of 0.2% wetting agent to the surface of the covering soil. After the treatment, the pots are placed in a greenhouse and kept under good growth conditions for the trial plants. The damage to the test plants is scored visually after a test period of 3 weeks by comparison with untreated controls (herbicidal activity in percent (%): 100% activity=the plants have died, 0% activity=like control plants).
# Alopecurus myosuroides [2] = assay: Pre-emergence herbicidal effect; conditions: visual score after 3 weeks
# Description: as §1
# Cyperus esculentus = assay: Pre-emergence herbicidal effect; conditions: 320 g/ha, visual score after 3 weeks
# Description: as §1
# Lolium multiflorum [3] = assay: Pre-emergence herbicidal effect; conditions: visual score after 3 weeks
# Description: as §1
# Echinochloa crus-galli [4] = assay: Pre-emergence herbicidal effect; conditions: visual score after 3 weeks
# Description: as §1
# Setaria viridis [5] = assay: Post-emergence herbicidal effect; conditions: visual assessment after about 3 weeks
# Procedure: (§2) Seeds of monocotyledonous and dicotyledonous weed and crop plants are laid out in sandy loam in wood-fibre pots, covered with soil and cultivated in a greenhouse under good growth conditions. 2 to 3 weeks after sowing, the test plants are treated at the one-leaf stage. The compounds according to the invention, formulated in the form of wettable powders (WP) or as emulsion concentrates (EC), are then sprayed as aqueous suspension or emulsion at a water application rate of 600 to 800 l/ha (converted) with the addition of 0.2% of wetting agent onto the green parts of the plants. After the test plants have been left to stand in the greenhouse under optimal growth conditions for about 3 weeks, the action of the preparations is assessed visually in comparison to untreated controls (herbicidal action in percent (%): 100% activity=the plants have died, 0% activity=like control plants).
# Alopecurus myosuroides [6] = assay: Post-emergence herbicidal effect; conditions: visual assessment after about 3 weeks
# Procedure: as §2
# Lolium multiflorum [7] = assay: Post-emergence herbicidal effect; conditions: visual assessment after about 3 weeks
# Procedure: as §2
# Echinochloa crus-galli [8] = assay: Post-emergence herbicidal effect; conditions: visual assessment after about 3 weeks
# Procedure: as §2
# Avena fatua [9] = assay: Pre-emergence herbicidal effect; conditions: visual score after 3 weeks
# Description: as §1
# Veronica persica = assay: Pre-emergence herbicidal effect; conditions: 320 g/ha, visual score after 3 weeks
# Description: as §1
# Avena fatua [10] = assay: Post-emergence herbicidal effect; conditions: visual assessment after about 3 weeks
# Procedure: as §2
structure (smiles),measurement,setting,value
CCc1cc(C#CC2CC2)cc(C)c1C1=C(OC(=O)C(C)C)C2(CCC(COC)C2)NC1=O (mixture of isomers) [Example Ia-10],Pre-emergence effectiveness SETVI,Setaria viridis [1]; 80 g/ha,90%
same,Pre-emergence effectiveness SETVI,Setaria viridis [1]; 320 g/ha,100%
same,Pre-emergence effectiveness ALOMY,Alopecurus myosuroides [2]; 80 g/ha,90%
same,Pre-emergence effectiveness ALOMY,Alopecurus myosuroides [2]; 320 g/ha,100%
same,Pre-emergence effectiveness CYPES,Cyperus esculentus,80%
same,Pre-emergence effectiveness LOLMU,Lolium multiflorum [3]; 80 g/ha,80%
same,Pre-emergence effectiveness LOLMU,Lolium multiflorum [3]; 320 g/ha,100%
same,Pre-emergence effectiveness ECHCG,Echinochloa crus-galli [4]; 80 g/ha,100%
same,Pre-emergence effectiveness ECHCG,Echinochloa crus-galli [4]; 320 g/ha,100%
same,Post-emergence effectiveness SETVI,Setaria viridis [5]; 20 g/ha,100%
same,Post-emergence effectiveness SETVI,Setaria viridis [5]; 80 g/ha,100%
same,Post-emergence effectiveness ALOMY,Alopecurus myosuroides [6]; 80 g/ha,80%
same,Post-emergence effectiveness LOLMU,Lolium multiflorum [7]; 20 g/ha,80%
same,Post-emergence effectiveness LOLMU,Lolium multiflorum [7]; 80 g/ha,90%
same,Post-emergence effectiveness ECHCG,Echinochloa crus-galli [8]; 20 g/ha,90%
same,Post-emergence effectiveness ECHCG,Echinochloa crus-galli [8]; 80 g/ha,90%
CC#Cc1cc(C)c(C2=C(O)C3(CCC(CCOC)CC3)NC2=O)c(CC)c1 (stereo not shown) [Example I-2],Pre-emergence effectiveness SETVI,Setaria viridis [1]; 80 g/ha,100%
same,Pre-emergence effectiveness SETVI,Setaria viridis [1]; 320 g/ha,100%
same,Pre-emergence effectiveness AVEFA,Avena fatua [9]; 80 g/ha,80%
same,Pre-emergence effectiveness AVEFA,Avena fatua [9]; 320 g/ha,100%
same,Pre-emergence effectiveness ALOMY,Alopecurus myosuroides [2]; 80 g/ha,100%
same,Pre-emergence effectiveness ALOMY,Alopecurus myosuroides [2]; 320 g/ha,100%
same,Pre-emergence effectiveness CYPES,Cyperus esculentus,100%
same,Pre-emergence effectiveness VERPE,Veronica persica,100%
same,Pre-emergence effectiveness LOLMU,Lolium multiflorum [3]; 80 g/ha,100%
same,Pre-emergence effectiveness LOLMU,Lolium multiflorum [3]; 320 g/ha,100%
same,Pre-emergence effectiveness ECHCG,Echinochloa crus-galli [4]; 80 g/ha,100%
same,Pre-emergence effectiveness ECHCG,Echinochloa crus-galli [4]; 320 g/ha,100%
same,Post-emergence effectiveness SETVI,Setaria viridis [5]; 20 g/ha,100%
same,Post-emergence effectiveness SETVI,Setaria viridis [5]; 80 g/ha,100%
same,Post-emergence effectiveness AVEFA,Avena fatua [10]; 20 g/ha,90%
same,Post-emergence effectiveness AVEFA,Avena fatua [10]; 80 g/ha,100%
same,Post-emergence effectiveness ALOMY,Alopecurus myosuroides [6]; 20 g/ha,90%
same,Post-emergence effectiveness ALOMY,Alopecurus myosuroides [6]; 80 g/ha,100%
same,Post-emergence effectiveness LOLMU,Lolium multiflorum [7]; 20 g/ha,90%
same,Post-emergence effectiveness LOLMU,Lolium multiflorum [7]; 80 g/ha,100%
same,Post-emergence effectiveness ECHCG,Echinochloa crus-galli [8]; 20 g/ha,100%
same,Post-emergence effectiveness ECHCG,Echinochloa crus-galli [8]; 80 g/ha,100%
COCC1CCC2(CC1)NC(=O)C(c1c(C)cc(C#CC3CC3)cc1C)=C2O (stereo not shown) [Example I-8],Pre-emergence effectiveness SETVI,Setaria viridis [1]; 80 g/ha,80%
same,Pre-emergence effectiveness SETVI,Setaria viridis [1]; 320 g/ha,90%
same,Pre-emergence effectiveness ALOMY,Alopecurus myosuroides [2]; 80 g/ha,90%
same,Pre-emergence effectiveness ALOMY,Alopecurus myosuroides [2]; 320 g/ha,100%
same,Pre-emergence effectiveness VERPE,Veronica persica,90%
same,Pre-emergence effectiveness LOLMU,Lolium multiflorum [3]; 80 g/ha,90%
same,Pre-emergence effectiveness LOLMU,Lolium multiflorum [3]; 320 g/ha,100%
same,Pre-emergence effectiveness ECHCG,Echinochloa crus-galli [4]; 80 g/ha,100%
same,Pre-emergence effectiveness ECHCG,Echinochloa crus-galli [4]; 320 g/ha,100%
same,Post-emergence effectiveness SETVI,Setaria viridis [5]; 20 g/ha,100%
same,Post-emergence effectiveness SETVI,Setaria viridis [5]; 80 g/ha,100%
same,Post-emergence effectiveness AVEFA,Avena fatua [10]; 80 g/ha,80%
same,Post-emergence effectiveness ALOMY,Alopecurus myosuroides [6]; 20 g/ha,90%
same,Post-emergence effectiveness ALOMY,Alopecurus myosuroides [6]; 80 g/ha,100%
same,Post-emergence effectiveness LOLMU,Lolium multiflorum [7]; 20 g/ha,90%
same,Post-emergence effectiveness LOLMU,Lolium multiflorum [7]; 80 g/ha,90%
same,Post-emergence effectiveness ECHCG,Echinochloa crus-galli [8]; 20 g/ha,100%
same,Post-emergence effectiveness ECHCG,Echinochloa crus-galli [8]; 80 g/ha,100%
CCc1cc(C#CC2CC2)cc(C)c1C1=C(O)C2(CCC(COC)C2)NC1=O (stereo not shown) [Example I-12],Pre-emergence effectiveness SETVI,Setaria viridis [1]; 80 g/ha,90%
same,Pre-emergence effectiveness SETVI,Setaria viridis [1]; 320 g/ha,100%
same,Pre-emergence effectiveness AVEFA,Avena fatua [9]; 80 g/ha,100%
same,Pre-emergence effectiveness AVEFA,Avena fatua [9]; 320 g/ha,80%
same,Pre-emergence effectiveness ALOMY,Alopecurus myosuroides [2]; 320 g/ha,100%
same,Pre-emergence effectiveness LOLMU,Lolium multiflorum [3]; 80 g/ha,100%
same,Pre-emergence effectiveness LOLMU,Lolium multiflorum [3]; 320 g/ha,100%
same,Pre-emergence effectiveness ECHCG,Echinochloa crus-galli [4]; 80 g/ha,90%
same,Pre-emergence effectiveness ECHCG,Echinochloa crus-galli [4]; 320 g/ha,100%
same,Post-emergence effectiveness SETVI,Setaria viridis [5]; 20 g/ha,100%
same,Post-emergence effectiveness SETVI,Setaria viridis [5]; 80 g/ha,100%
same,Post-emergence effectiveness AVEFA,Avena fatua [10]; 20 g/ha,80%
same,Post-emergence effectiveness AVEFA,Avena fatua [10]; 80 g/ha,80%
same,Post-emergence effectiveness ALOMY,Alopecurus myosuroides [6]; 80 g/ha,90%
same,Post-emergence effectiveness LOLMU,Lolium multiflorum [7]; 80 g/ha,90%
same,Post-emergence effectiveness ECHCG,Echinochloa crus-galli [8]; 20 g/ha,100%
same,Post-emergence effectiveness ECHCG,Echinochloa crus-galli [8]; 80 g/ha,100%
CCOC(=O)OC1=C(c2c(C)cc(C#CC3CC3)cc2CC)C(=O)N[C@]12CC[C@H](COC)C2 [Example Ia-1],Pre-emergence effectiveness SETVI,Setaria viridis [1]; 80 g/ha,100%
same,Pre-emergence effectiveness SETVI,Setaria viridis [1]; 320 g/ha,100%
same,Pre-emergence effectiveness AVEFA,Avena fatua [9]; 80 g/ha,80%
same,Pre-emergence effectiveness AVEFA,Avena fatua [9]; 320 g/ha,90%
same,Pre-emergence effectiveness ALOMY,Alopecurus myosuroides [2]; 80 g/ha,90%
same,Pre-emergence effectiveness ALOMY,Alopecurus myosuroides [2]; 320 g/ha,100%
same,Pre-emergence effectiveness VERPE,Veronica persica,90%
same,Pre-emergence effectiveness LOLMU,Lolium multiflorum [3]; 80 g/ha,100%
same,Pre-emergence effectiveness LOLMU,Lolium multiflorum [3]; 320 g/ha,100%
same,Pre-emergence effectiveness ECHCG,Echinochloa crus-galli [4]; 80 g/ha,100%
same,Pre-emergence effectiveness ECHCG,Echinochloa crus-galli [4]; 320 g/ha,100%
same,Post-emergence effectiveness SETVI,Setaria viridis [5]; 80 g/ha,90%
same,Post-emergence effectiveness ALOMY,Alopecurus myosuroides [6]; 80 g/ha,80%
same,Post-emergence effectiveness ECHCG,Echinochloa crus-galli [8]; 20 g/ha,90%
same,Post-emergence effectiveness ECHCG,Echinochloa crus-galli [8]; 80 g/ha,100%
